In US20150252370A1, “USE OF ATX INHIBITORS FOR TREATMENT OR PREVENTION OF INFLUENZA VIRUS A INFECTIONS” (Academia Sinica, priority 2014, published 2015):
Entries after “also recorded” stand apart in the source; their conditions may differ.

How the values were obtained:
[1] = test system: Influenza A virus (IAV) (A/WSN/33, H1N1); assay type: cell-based
human AXL = biological target: T1, human AXL (Homo sapiens, UniProt P30530); assay type: cell-based
T1 construct: Human AXL (NM_021913.4) were PCR amplified using the primers human AXL forward; expressed in transfected cells
T1 sequence (P30530 26-894): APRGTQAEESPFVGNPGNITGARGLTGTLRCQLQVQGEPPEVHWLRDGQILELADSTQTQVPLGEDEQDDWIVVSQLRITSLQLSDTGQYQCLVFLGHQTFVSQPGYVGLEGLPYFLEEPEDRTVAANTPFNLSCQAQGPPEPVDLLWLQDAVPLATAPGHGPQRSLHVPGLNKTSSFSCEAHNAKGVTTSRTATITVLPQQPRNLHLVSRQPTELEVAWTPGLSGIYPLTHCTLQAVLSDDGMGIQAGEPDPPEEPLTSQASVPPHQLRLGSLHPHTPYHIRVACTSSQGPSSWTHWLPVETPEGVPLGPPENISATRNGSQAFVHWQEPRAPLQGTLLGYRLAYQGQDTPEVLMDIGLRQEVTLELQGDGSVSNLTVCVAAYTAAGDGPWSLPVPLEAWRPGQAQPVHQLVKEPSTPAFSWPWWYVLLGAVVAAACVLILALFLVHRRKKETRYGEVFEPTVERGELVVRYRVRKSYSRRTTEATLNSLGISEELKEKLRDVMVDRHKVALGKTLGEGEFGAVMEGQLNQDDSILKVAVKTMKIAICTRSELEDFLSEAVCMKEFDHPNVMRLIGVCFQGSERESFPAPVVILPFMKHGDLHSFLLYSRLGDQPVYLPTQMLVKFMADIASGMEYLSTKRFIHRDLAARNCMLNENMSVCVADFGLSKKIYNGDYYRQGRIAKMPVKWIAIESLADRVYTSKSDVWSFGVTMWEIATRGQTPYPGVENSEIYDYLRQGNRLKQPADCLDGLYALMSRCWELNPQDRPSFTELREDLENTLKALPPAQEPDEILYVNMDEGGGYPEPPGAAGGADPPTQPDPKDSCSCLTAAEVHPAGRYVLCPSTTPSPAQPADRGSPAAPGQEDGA

metastatic breast cancer = details: mouse models of metastatic breast cancer; cited from earlier work

In the case of `Nc1nc(Nc2ccc3c(c2)CCC(N2CCCC2)CC3)nn1-c1cc2c(nn1)-c1ccccc1CCC2` (stereo not shown) [R428, 1-(6,7-dihydro-5H-benzo[6,7]cyclohepta[1,2-c]pyridazin-3-yl)-N3-(7-(pyrrolidin-1-yl)-6,7,8,9-tetrahydro-5H-benzo[7]annulen-2-yl)-1H-1,2,4-triazole-3,5-diamine], the “IAV replication (NP and NS1 protein expression)” value [1] is reported as “blocked virus infection; also recorded: significantly inhibited influenza A virus infection; also recorded: inhibited IAV replication”, the “time of addition at which R428 inhibits IAV replication” value [1] is reported as “before or during the first hour, but not later” and the “AXL autophosphorylation stimulated by Gas6” value (human AXL) is reported as “block autophosphorylation”. For the same compound, the “tumor spread and survival” value (metastatic breast cancer) was “block tumor spread and prolong survival”.
